Results taken from the supplement of paper PMC10307832.

How the values were obtained:
Experiment in all cases: relative viability (nuclei count vs DMSO), 5 days (fraction); higher = more cells survive
[1] = compound: CCC1=CN=CN=C1N2CCN(CC2)CC3=NC4=C(N3)C=C(C=C4)C(F)(F)F + CC(C)C[C@H](NC(=O)[C@H](Cc1ccccc1)NC(=O)c1cnccn1)B(O)O [Bortezomib] (partner 0.002 µM)
Summary of the method: (§1)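 After 5 days of treatment, lung cancer cells in 1536-well plates were fixed and stained in a single step (final 0.05% Triton X-100, 1% formaldehyde, 1 ug/ml Hoechst) and their nuclei counted on 4× images. Treatment had been applied by pin tool the day after seeding as one drug alone or as a fixed anchor-drug dose with five library-drug doses (not always all listed) in √10 steps. Relative viability is the nuclei count of treated wells divided by that of vehicle wells, and values are medians of duplicate plates.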

[2] = compound: CCC1=CN=CN=C1N2CCN(CC2)CC3=NC4=C(N3)C=C(C=C4)C(F)(F)F + CS(=O)(=O)N1CCN(Cc2cc3nc(-c4cccc5[nH]ncc45)nc(N4CCOCC4)c3s2)CC1 [Pictilisib] (partner 1 µM)
Summary of the method: as §1

[3] = compound: CCC1=CN=CN=C1N2CCN(CC2)CC3=NC4=C(N3)C=C(C=C4)C(F)(F)F + CCNC(=O)c1noc(-c2cc(C(C)C)c(O)cc2O)c1-c1ccc(CN2CCOCC2)cc1 [Luminespib] (partner 0.01 µM)
Summary of the method: as §1

Mirin + Trametinib = compound: N=C1NC(=O)/C(=C/c2ccc(O)cc2)S1 [Mirin] + CC(=O)Nc1cccc(-n2c(=O)n(C3CC3)c(=O)c3c(Nc4ccc(I)cc4F)n(C)c(=O)c(C)c32)c1 [Trametinib] (partner 0.02 µM)
Summary of the method: as §1

Cell Line	relative viability ([1]; first compound 0.04 µM)	relative viability ([1]; first compound 0.1265 µM)	relative viability ([1]; first compound 0.4 µM)	relative viability ([1]; first compound 1.265 µM)	relative viability ([1]; first compound 4 µM)	relative viability ([2]; first compound 0.04 µM)	relative viability ([2]; first compound 0.1265 µM)	relative viability ([2]; first compound 0.4 µM)	relative viability ([2]; first compound 1.265 µM)	relative viability ([2]; first compound 4 µM)	relative viability ([3]; first compound 0.04 µM)	relative viability ([3]; first compound 0.1265 µM)	relative viability ([3]; first compound 0.4 µM)	relative viability ([3]; first compound 4 µM)	relative viability (Mirin + Trametinib; first compound 0.25 µM)	relative viability (Mirin + Trametinib; first compound 0.7906 µM)	relative viability (Mirin + Trametinib; first compound 2.5 µM)	relative viability (Mirin + Trametinib; first compound 7.906 µM)	relative viability (Mirin + Trametinib; first compound 25 µM)	relative viability ([3]; first compound 1.265 µM)
NCI-H1792	0.885	0.782	0.926	1.04	1	0.361	0.3	0.215	0.188	0.25	0.507	0.496	0.427	0.42	0.422	0.36	0.43	0.421	0.332	–
NCI-H647	1.3	0.938	–	0.884	0.955	–	0.433	–	–	0.399	0.228	0.181	0.147	0.152	0.475	0.605	0.548	0.524	0.474	0.0988
NCI-H2126	1.05	1.08	1.19	1.16	1.14	0.518	0.496	0.493	0.442	0.496	0.847	0.89	0.931	0.922	0.604	0.568	0.552	0.56	0.501	0.773
NCI-H727	0.998	0.689	0.876	–	0.744	0.521	0.377	0.29	–	0.382	0.423	0.362	0.306	0.426	0.443	0.348	0.41	0.341	0.34	–
EMC-BAC-2	1.07	1.01	1.05	0.917	1.15	0.571	0.491	0.479	0.349	0.608	1.24	1.19	1.2	1.14	0.934	0.889	0.875	0.761	0.957	–
NCI-H1355	1.21	1.17	1.22	1.07	1.38	0.541	0.414	0.361	0.293	0.453	0.707	0.641	0.689	0.753	0.457	0.482	0.48	0.374	0.399	0.61
NCI-H2347	1.07	0.92	0.724	–	1.04	0.58	0.591	0.652	–	0.671	0.346	0.415	0.372	0.44	0.301	0.313	0.26	0.3	0.274	0.228
NCI-H1651	0.876	0.926	0.953	0.851	0.96	0.625	0.607	0.487	0.65	0.675	0.977	0.84	0.739	0.767	0.809	0.875	0.886	0.767	0.855	0.923
NCI-H1975	0.449	0.341	0.363	0.335	0.318	0.311	0.307	0.268	0.287	0.288	0.283	0.302	0.176	0.205	0.379	0.337	0.365	0.337	0.55	0.199
COR-L23	0.988	0.91	0.964	0.956	0.957	0.696	0.71	0.676	0.632	0.769	0.717	0.629	0.641	0.545	0.559	0.522	0.56	0.345	0.652	0.654
HCC-44	0.853	0.798	0.854	0.89	0.866	0.584	0.593	0.557	0.477	0.596	1.02	1.01	1.03	1.07	0.981	1.36	1.08	1.06	1.09	0.88
LOU-NH91	0.408	0.543	0.507	0.523	0.504	0.501	0.533	0.54	0.47	0.551	0.341	0.403	0.32	0.313	0.789	0.809	0.795	0.823	1.01	0.323
NCI-H460	1.11	1.1	0.977	1.06	0.951	0.41	0.291	0.36	0.224	0.395	0.0311	0.0367	0.0386	0.0253	0.142	0.172	0.206	0.102	0.171	0.0407
NCI-H650	0.68	0.797	0.672	0.841	0.959	0.875	0.82	0.983	0.736	0.841	0.889	0.926	0.698	0.806	1.08	0.93	0.938	0.968	0.88	0.739
NCI-H1915	1.01	0.907	0.966	0.962	1.01	0.916	0.899	0.931	0.687	0.963	0.699	0.827	0.75	0.688	0.29	0.332	0.28	0.328	0.389	0.639
NCI-H1734	0.919	0.853	0.907	–	0.854	0.387	0.449	0.431	–	0.473	0.213	0.196	0.173	0.185	0.688	0.749	0.646	0.633	0.675	0.207
NCI-H1993	1.16	0.952	0.927	1.25	1.01	0.837	0.808	0.708	0.765	0.834	0.852	0.802	0.836	0.816	0.506	0.519	0.533	0.336	0.546	0.772

Cell Line	relative viability ([1]; first compound 0.04 µM)	relative viability ([1]; first compound 0.1265 µM)	relative viability ([1]; first compound 0.4 µM)	relative viability ([1]; first compound 1.265 µM)	relative viability ([1]; first compound 4 µM)	relative viability ([2]; first compound 0.04 µM)	relative viability ([2]; first compound 0.1265 µM)	relative viability ([2]; first compound 0.4 µM)	relative viability ([2]; first compound 1.265 µM)	relative viability ([2]; first compound 4 µM)	relative viability ([3]; first compound 0.04 µM)	relative viability ([3]; first compound 0.1265 µM)	relative viability ([3]; first compound 0.4 µM)	relative viability ([3]; first compound 4 µM)	relative viability (Mirin + Trametinib; first compound 0.25 µM)	relative viability (Mirin + Trametinib; first compound 0.7906 µM)	relative viability (Mirin + Trametinib; first compound 2.5 µM)	relative viability (Mirin + Trametinib; first compound 7.906 µM)	relative viability (Mirin + Trametinib; first compound 25 µM)	relative viability ([3]; first compound 1.265 µM)
NCI-H3122	1.11	0.968	1	1.03	1.05	0.69	0.578	0.609	0.665	0.659	0.109	0.0823	0.0856	0.0698	0.221	0.218	0.25	0.176	0.221	0.0704
HOP-62	0.869	0.819	0.648	0.677	0.947	0.661	0.669	0.705	0.642	0.76	1.11	0.991	0.895	0.816	0.369	0.447	0.355	0.491	0.398	0.954
NCI-H661	0.845	0.809	0.696	–	0.782	0.358	0.402	0.412	–	0.366	0.968	0.935	0.885	0.783	0.59	0.722	0.628	0.482	0.575	0.872
BEN	0.646	0.656	0.708	0.621	0.49	0.593	0.557	0.503	0.343	0.331	0.227	0.212	0.319	0.13	0.942	1.01	1.16	0.825	0.591	0.289
ChaGo-K-1	–	0.97	0.964	1.09	0.985	–	0.707	0.63	0.668	0.557	0.566	0.591	0.62	0.432	0.833	0.836	0.94	0.756	0.677	0.548
NCI-H1755	1.02	0.882	0.953	0.816	1.06	0.384	0.377	0.372	0.19	0.371	0.458	0.483	0.311	0.308	0.745	0.793	0.755	0.771	0.841	0.338
NCI-H2023	1.04	1.03	0.964	0.837	1.17	0.274	0.225	0.216	0.192	0.319	0.7	0.594	0.706	0.626	0.716	0.558	0.668	0.56	0.597	0.72
LC-2-ad	0.993	0.959	0.969	0.963	0.952	0.459	0.512	0.424	0.328	0.326	0.952	1.01	1.01	0.939	0.964	1.06	0.979	0.906	0.945	0.873
NCI-H1666	0.799	0.714	0.896	0.811	0.779	0.569	0.402	0.417	0.498	0.501	0.949	0.906	0.925	1.04	0.909	0.764	0.77	0.607	0.772	0.908
201T	1.09	1.06	1.04	1.09	1.14	0.708	0.652	0.658	0.514	0.801	1.08	1.04	0.974	0.96	0.739	0.74	0.77	0.796	0.857	0.938
NCI-H2009	1.13	0.999	1.03	0.716	0.982	0.821	0.824	0.826	0.514	0.544	1.1	0.966	1.02	0.87	0.277	0.334	0.334	0.293	0.282	1.06
NCI-H23	0.868	1.13	0.905	0.98	1.16	0.58	0.439	0.41	0.348	0.432	0.223	0.219	0.21	0.213	0.358	–	0.384	0.279	0.298	0.191
LU99A	1.23	1.07	1.05	1.07	1.24	0.369	0.287	0.363	0.346	0.321	0.247	0.227	0.309	0.229	0.515	0.496	0.56	0.395	0.55	0.22
NCI-H1437	0.528	0.484	0.431	0.474	0.504	0.511	0.404	0.395	0.336	0.439	1.07	0.995	0.964	0.907	0.597	0.46	0.555	0.519	0.399	1.01
EKVX	0.994	0.945	0.983	0.952	1.13	0.395	0.388	0.373	0.307	0.444	0.846	0.83	0.882	0.919	0.373	0.246	0.382	0.35	0.376	–
NCI-H596	1.03	1.11	0.846	0.946	1.15	0.399	0.366	0.396	0.327	0.413	1.25	1.02	0.814	1.03	0.872	0.77	0.763	0.873	0.835	–
